In BindingDB's records for doi:10.1016/j.chembiol.2007.03.013 (Portland State University, 2007):

Experiments:
[1] = target: T1, 3-oxoacyl-[acyl-carrier-protein] synthase 3 (Escherichia coli, UniProt C3TDZ2); assay: FabH Enzyme Assay; settings: pH 7; 37 °C
T1 sequence (C3TDZ2 whole entry): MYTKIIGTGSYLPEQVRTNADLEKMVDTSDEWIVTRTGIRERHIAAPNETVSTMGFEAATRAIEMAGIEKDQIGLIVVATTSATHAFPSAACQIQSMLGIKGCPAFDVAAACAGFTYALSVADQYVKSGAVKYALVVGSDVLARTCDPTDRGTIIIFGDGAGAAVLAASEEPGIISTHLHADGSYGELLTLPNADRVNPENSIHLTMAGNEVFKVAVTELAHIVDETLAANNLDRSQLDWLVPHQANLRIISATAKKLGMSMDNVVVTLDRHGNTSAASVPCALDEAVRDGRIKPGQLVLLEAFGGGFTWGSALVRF
Procedure: (§1) Escherichia coli FabH assays were carried out using standard coupled trichloroacetic acid precipitation assay to determine the rate formation of radiolabeled 3-ketoacyl-ACP from malonyl-ACP. Mycobacterium tuberculosis FabH assay was done by sustituting malonyl-CoA for MACP.

[2] = target: T2, 3-oxoacyl-[acyl-carrier-protein] synthase 3 (Mycobacterium tuberculosis (strain CDC 1551 / Oshkosh), UniProt P9WNG2); assay: FabH Enzyme Assay; settings: pH 7; 37 °C
T2 sequence (P9WNG2 whole entry): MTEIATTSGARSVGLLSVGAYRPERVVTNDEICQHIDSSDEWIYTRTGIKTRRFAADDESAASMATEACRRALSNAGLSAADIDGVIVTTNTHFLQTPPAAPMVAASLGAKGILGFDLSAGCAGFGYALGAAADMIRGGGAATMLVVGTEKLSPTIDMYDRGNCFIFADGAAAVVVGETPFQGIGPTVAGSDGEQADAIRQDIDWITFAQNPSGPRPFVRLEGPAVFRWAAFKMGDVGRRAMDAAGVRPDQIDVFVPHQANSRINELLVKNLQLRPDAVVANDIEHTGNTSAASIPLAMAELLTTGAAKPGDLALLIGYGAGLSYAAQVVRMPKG
Procedure: as §1

Row | SMILES | IC50 [1] [µM] | IC50 [2] [µM]
1 | CCCCSSCCNC(=O)CCNC(=O)C(O)C(C)(C)OP(=O)(O)OP(=O)(O)OCC1OC(n2cnc3c(N)ncnc32)C(O)C1OP(=O)(O)O (stereo not drawn) [Butyl-CoA disulfide 2] | > 300 | > 300
2 | CCCCCCCCCCSSCCNC(=O)CCNC(=O)C(O)C(C)(C)OP(=O)(O)OP(=O)(O)OCC1OC(n2cnc3c(N)ncnc32)C(O)C1OP(=O)(O)O (stereo not drawn) [Decyl-CoA disulfide 5] | > 300 | 1.2
3 | CSSCCNC(=O)CCNC(=O)C(O)C(C)(C)OP(=O)(O)OP(=O)(O)OCC1OC(n2cnc3c(N)ncnc32)C(O)C1OP(=O)(O)O (stereo not drawn) [Methyl-CoA disulfide 1] | 57.1 | > 300
4 | CCCCCCCCSSCCNC(=O)CCNC(=O)C(O)C(C)(C)OP(=O)(O)OP(=O)(O)OCC1OC(n2cnc3c(N)ncnc32)C(O)C1OP(=O)(O)O (stereo not drawn) [Octyl-CoA disulfide 4] | > 300 | 30.1
